# Read-outs that look alike come from different tables or passages of the source.
# What was measured:
# [1] = test system: guinea pig distal colon longitudinal muscles; conditions: electrical stimulation, cited from earlier work; for pA2 value of the antagonistic action: against relaxing action of NECA
# [2] = test system: guinea pig distal colon longitudinal muscles; conditions: cited from earlier work; for EC50: KCl in the presence of tetrodotoxin, read-out: Relaxing action EC50
# colon tract [3] = assay: Contraction of the colon tract with Carbachol; parameters: species or system rat
# Method: (§1) The abdomen of a rat under anesthesia with ether was opened, and from the rectum to the cecum was excised therefrom and soaked in ice-cooled Tyrode solution (containing 136 mM NaCl, 2.7 mM KCl, 0.4 mM NaH2PO4.2H2O, 5.6 mM glucose, 11.9 mM NaHCO3, 1 mM MgCl2.6H2O, 1.8 mM CaCl2). Surrounding connective tissues were removed, and the intestinal tract was cut at positions apart by 1.5 cm from the rectum and by 3 cm from the cecum, to give a colon tract of about 3 cm in full length. Both the terminals of the colon tract were pinched respectively with Serrefines (trade name) to which a string had been connected, and the colon tract with the side of the cecum facing upward was immediately suspended in a Magnus tube filled with Tyrode solution previously warmed at 37° C., and then equilibrated by bubbling with a gas (O2/CO2=95/5). The string connected to the Serrefines (trade name) at the side of the cecum was suspended, and the change in the length of the colon tract was detected with an amplifier for strain pressure (Nihon Kohden Corporation).
# Carbachol (Sigma) at each concentration diluted 100-fold was added accumulatively in a volume of 1/100 to the Magnus tube, and the change in the length of the colon tract was measured, and the length thereof in the absence of Carbachol was regarded as 0% contraction, and the length thereof in the presence of 1.44 μM Carbachol was regarded as 100% contraction. In the experiment, 3 samples were used.
# SD IGS rats [4] = assay: Evaluation of defecation-promoting action (Tables 8 and 10); type: in vivo, rat
# From the text: For example, the defecation-promoting actions of 8-phenyltheophylline (“8-PT” in the table below) and 5-[6-amino-8-(3-fluorophenyl)-9H-9-purinyl]-1-methyl-1,2-di hydro-2-pyridinone (Compound II in the table below) disclosed in Example Number 5 described in WO 2001/2400 were as shown below. 8-PT can be easily produced according to the description of Drug Development Research 47: 45-53 (1999), or is easily available as a commercial product (in this test, it was purchased from Sigma).
# That is, SD IGS rats (6- to 7-weeks-old, from Charles River) were placed in cages (3 animals/cage) and preliminarily allowed food and water ad libitum and raised for 1 week. On the day of the experiment, their weight was measured, a water-absorbing sheet was placed below each cage, and the animals were fasted but allowed water ad libitum throughout the experiment. Thee hours after fasting was initiated, the fecal pellets were recovered from each cage and observed for abnormality before the experiment, and then the compound suspended in 0.5% (w/v) methyl cellulose (MC) was orally administered in a dose of 5 ml/kg. On one hand, 0.5% (w/v) MC only was orally given to the control group. After administration of the compound, the rats were returned to the cage provided with a new water-absorbing sheet, and 180 minutes after the administration, the fecal pellets on the water-absorbing sheet were recovered from each cage, and the external appearance was observed, and the number of fecal pellets was counted. The number of fecal pellets is expressed per each cage.
# SD IGS rats [5] = assay: Defecation-promoting action in rat (Test Example 2); type: in vivo; conditions: for The number of fecalpellets/3 rats: 180 minutes after administration
# Method: (§2) SD IGS rats (6-weeks-old, from Charles River) were placed in cages (3 animals/cage) and preliminarily allowed food and water ad libitum and raised for 1 week. On the day of the experiment, their weight was measured, a water-absorbing sheet was placed below each cage, and the animals were fasted but allowed water ad libitum throughout the experiment. Three hours after fasting was initiated, the fecal pellets were recovered from each cage and observed for abnormality before the experiment, and then the compound suspended or dissolved in 0.5% (W/V) methyl cellulose (MC) was orally administered into each rat in a dose of 5 ml/kg. On one hand, 0.5% (W/V) MC only was orally given to the control group. After administering the compound, the rats were returned to the cage provided with anew water-absorbing sheet of known weight, and 180 minutes after the administration, the fecal pellets on the water-absorbing sheet were recovered from each cage, and the external appearance was observed, and the number of fecal pellets was counted. The number of fecal pellets is expressed per each cage (Table 4). After the fecal pellets were recovered, the water-absorbing sheet was weighed, and the weight determined by subtracting the initial weight of the water-adsorbing sheet from the weight after the experiment was regarded as the volume of urine and expressed as the volume of urine per 100 g of the body weight (Table 4).
# SD IGS rats [6] = assay: Contribution of A2b inhibition to defecation-promoting action (Test Example 3); type: in vivo, rat; conditions: 180 minutes
# Method: as §2
# After administering the compounds, the rats were returned to the cage under which a new water-absorbing sheet had been installed, and after 180 minutes, the fecal pellets on the water-absorbing sheet were recovered from each cage, and the outward appearance was observed and the number of fecal pellets was counted. The number of fecal pellets is expressed per cage (Table 5).
# [7] = Urine volume / diuretic action in rat (Test Example 2); type: in vivo; conditions: for Urine Volume (g/100 g body weight): 180 minutes
# Method: as §2
# colon tract [8] = assay: Inhibitory effect of adenosine receptor antagonist on suppressing action of NECA on Carbachol-stimulated contraction of the colon tract; parameters: species or system rat; conditions: for Contraction (%) Mean: Carbachol 0.3 μM + NECA 1 μM = 0%, Carbachol 0.3 μM = 100%
# Method: as §1
# (§3) In the experiment, 3 samples were used.
# colon tract [9] = assay: Inhibitory effect of NECA on Carbachol-stimulated contraction of the colon tract; parameters: species or system rat; conditions: Carbachol 1.44 μM (singly added) = 100%
# Method: as §1, with “Surrounding” for “The abdomen of a rat under anesthesia with ether was opened, and from the rectum to the cecum was excised therefrom and soaked in ice-cooled Tyrode solution (containing 136 mM NaCl, 2.7 mM KCl, 0.4 mM NaH2PO4.2H2O, 5.6 mM glucose, 11.9 mM NaHCO3, 1 mM MgCl2.6H2O, 1.8 mM CaCl2). Surrounding”
# as §3
# [10] = 3 mg/kg oral, Table 8, n = 4 cages/group
# [11] = 10 mg/kg oral, Table 8, n = 4 cages/group
# [12] = against NECA, KCl + tetrodotoxin
structure (smiles),measurement,setting,value
"CCNC(=O)[C@H]1O[C@@H](n2cnc3c(N)nc(NCCc4ccc(CCC(=O)O)cc4)nc32)[C@H](O)[C@@H]1O [CGS21680, 2-p-[2-carboxyethyl]phenetylamino-5′-N-ethylarboxyamide adenosine]",Relaxing action (in words),[1],very weak
same,Relaxing action (in words),"[2]; 1 μM, KCl + tetrodotoxin",did not act thereon
OC[C@H]1O[C@@H](n2cnc3c(NC4CCCC4)ncnc32)[C@H](O)[C@@H]1O [CPA],EC50,[2],12.6 µM
C[N+](C)(C)CCOC(N)=O [Carbachol],Contraction (%) Mean,"colon tract [3]; Carbachol 0.01 μM, 1.44 μM Carbachol = 100%",1.4%
same,Contraction (%) Mean,"colon tract [3]; Carbachol 0.04 μM, 1.44 μM Carbachol = 100%",24.5%
same,Contraction (%) Mean,"colon tract [3]; Carbachol 0.14 μM, 1.44 μM Carbachol = 100%",69.1%
same,Contraction (%) Mean,"colon tract [3]; Carbachol 0.44 μM, 1.44 μM Carbachol = 100%",87.0%
same,Contraction (%) Mean,colon tract [3]; Carbachol 1.44 μM (defined as 100%),100.0%
"Cn1cc(-n2c(-c3cccc(F)c3)nc3c(N)ncnc32)ccc1=O [Compound II, 5-[6-amino-8-(3-fluorophenyl)-9H-9-purinyl]-1-methyl-1,2-di hydro-2-pyridinone]",The number of fecalpellets/3 rats,"SD IGS rats [4]; 1 mg/kg oral, Table 8, n = 4 cages/group",12.5 ± 1.44 fecalpellets/3 rats
same,The number of fecalpellets/3 rats,SD IGS rats [4]; [10],18.5 ± 1.94 fecalpellets/3 rats
same,The number of fecalpellets/3 rats,SD IGS rats [4]; [11],20.75 ± 1.70 fecalpellets/3 rats
CCCn1c(=O)c2[nH]c(C3CCCC3)nc2n(CCC)c1=O [DPCPX],pA2 value of the antagonistic action,[1],8.8
same,pA2 value,"[2]; against CPA, KCl + tetrodotoxin",7.0
same,pA2 value,[2]; [12],6.6
"Nc1nc(N)c(-c2ccncc2)c(-c2cccc(F)c2)n1 [Example 1, 6-(3-Flurophenyl)-5-(4-pyridyl)-2,4-pyrimidine diamine]",The number of fecalpellets/3 rats,"SD IGS rats [4]; 3 mg/kg oral, Table 10, n = 6 cages/group",14.83 ± 1.82 fecalpellets/3 rats
same,The number of fecalpellets/3 rats,"SD IGS rats [4]; 10 mg/kg oral, Table 10, n = 6 cages/group",23.17 ± 2.94 fecalpellets/3 rats
"Cn1c(=O)c2[nH]c(-c3ccccc3)nc2n(C)c1=O [Example 8-PT, 8-phenyltheophylline]",The number of fecalpellets/3 rats,SD IGS rats [4]; [10],8.75 ± 1.75 fecalpellets/3 rats
same,The number of fecalpellets/3 rats,SD IGS rats [4]; [11],13.75 ± 0.85 fecalpellets/3 rats
same,pA2 value of the antagonistic action,[1],6.5
same,pA2 value,[2]; [12],5.7
CCCn1c(=O)c2nc(C34CC5CC(CC3C5)C4)[nH]c2n(CCC)c1=O [KW 3902],The number of fecalpellets/3 rats,SD IGS rats [5]; 0.3 mg/kg oral,10.67 ± 2.08 fecalpellets/3 rats
same,The number of fecalpellets/3 rats,SD IGS rats [5]; 1 mg/kg oral,14.50 ± 1.18 fecalpellets/3 rats
same,The number of fecalpellets/3 rats,SD IGS rats [5]; 3 mg/kg oral,12.83 ± 1.66 fecalpellets/3 rats
same,Dose at which the defecation-promoting action reaches the maximum,"SD IGS rats [5]; rat, oral",1 mg/kg
same,Defecation-promoting action (in words),"SD IGS rats [5]; rat, oral, Table 4",exhibits a defecation-promoting action
same,The number of fecalpellets/3 rats,SD IGS rats [6]; 1 mg/kg together with KW 6002 (1 mg/kg),18.25 ± 1.49 fecalpellets/3 rats
same,The number of fecalpellets/3 rats,"SD IGS rats [6]; 1 mg/kg, without KW 6002",9.00 ± 1.08 fecalpellets/3 rats
same,Urine Volume (g/100 g body weight),[7]; 0.3 mg/kg oral,2.08 ± 0.04 g/100 g body weight
same,Urine Volume (g/100 g body weight),[7]; 1 mg/kg oral,2.15 ± 0.09 g/100 g body weight
same,Urine Volume (g/100 g body weight),[7]; 3 mg/kg oral,2.01 ± 0.06 g/100 g body weight
same,Diuretic action (comparison in words),"[7]; rat, oral",stronger diuretic action than Compound I
CCCN1C(=O)N2CC(CC)N=C2c2[nH]c(C34CC5CC(CC3C5)C4)nc21 (stereo not shown) [KW 20274],Contraction (%) Mean,colon tract [8]; antagonist 0.1 μM,−8.2%
same,Contraction (%) Mean,colon tract [8]; antagonist 0.4 μM,−26.0%
same,Contraction (%) Mean,colon tract [8]; antagonist 1.4 μM,−40.0%
same,Contraction (%) Mean,colon tract [8]; antagonist 4.4 μM,−71.0%
same,Inhibition of the suppressing effect of NECA on the contraction (in words),"colon tract [8]; rat colon tract, Carbachol + NECA",did not show any inhibitory effect
"CCNC(=O)[C@H]1O[C@@H](n2cnc3c(N)ncnc32)[C@H](O)[C@@H]1O [NECA, 5′-N-ethylcarboxyamide adenosine]",Contraction (%) Mean,colon tract [9]; NECA 0.1 μM,89.0%
same,Contraction (%) Mean,colon tract [9]; NECA 0.4 μM,75.3%
same,Contraction (%) Mean,colon tract [9]; NECA 14.4 μM,54.9%
same,EC50,[2],10.4 µM

# Source: US20040259865A1, “Pyrimidone compounds and pharmaceutical compositions containing the same” (priority 2001, published 2004)
